Data on 17 compounds can be found in patent US20250066323A1, “INHIBITORS OF HUMAN RESPIRATORY SYNCYTIAL VIRUS AND METAPNEUMOVIRUS” (priority 2023, published 2025).

The test system of one assay is RSV-A2-GFP. Put plainly: RSV-A2-GFP viral replication assay. The assay is classed as cell-based, Human Respiratory Syncytial Virus. From the text:
GFP sequence was derived from pJTI™ R4 Dest CMV N-EmGFP pA Vector (Invitrogen) and was cloned into the intergenic sequence between wild-type RSV-A2 P and M genes using standard recombineering techniques. Recombinant RSV-A2-GFP was propagated in Hep2 cells (human cells contains HeLa marker chromosomes and were derived via HeLa contamination, ATCC CCL-23) with infection Multiplicity of Infection (MOI) of 0.1. Virus was harvested 3 days after infection by collecting all culture material and freeze-thaw the viral culture in liquid nitrogen for at least 5 times. To generating virus working stocks, thaw frozen samples in 37° C. water bath then centrifuge at 218 g for 15 min at 4° C. Add 1/10 of 10×SPG (Biological Industries 06-3061-01-5A), mix, aliquot supernatant, and quick-freeze in liquid nitrogen then transfer to −80° C. freezer for storage. Virus titer was determined by automated plaque assay in HEp-2 cells following methods described previously (Wen Z. et al.; J Virol Methods. 2019 January; 263:88-95).
Calu-1 cells (human lung epidermoid carcinoma, ATCC HTB-54) assay ready freezedown (ARF generation described separately) were used in assays. Compound plates were prepared by dispensing compounds dissolved in DMSO into wells of 384 well coming 3985 polystyrene flat clear bottom optical imaging microplates (202.5 nL/well) using an ECHO acoustic dispenser. Each compound was tested in a 10-point serial 3-fold dilution (typical final concentrations: 403 nM-0.02 nM and 40.3 nM-0.002 nM). […] To set up the assay, thaw ARF vial(s) in 37° C. water bath until small ice crystal remain and resuspend into assay media (DMEM containing 2% FBS, 100 U/ml Penicillin-Streptomycin). Count cells using default parameters on ViCell and dilute to 20,000 cells per ml in assay media. Add RSV GFP to cells at 24,000 pfu/ml (MOI=1.2). Mix by gentle inversion. 10 μl/well of 100% DMSO was dispensed to CellTiter-Glo (CTG) assay Max_E controls wells. Dispense cells at 50 μl/well using Bravo and 50 μl filtered tips into compound plates. Cover plates with MicroClime lids loaded with 7.5 ml of assay media to minimize evaporation. Incubate at 37 degrees C. and 5% CO2 for 96 hrs. Following incubation, distinct, GFP-expressing cells are counted using an Acumen imaging system with appropriate settings. A same-well CTG assay is performed by adding 10 μl/well reconstituted CellTiter-Glo reagent (Promega G7573) and reading plates on PerkinElmer Envision according to manufacturer's instructions. Raw data were loaded and analyzed in ActivityBase. Antiviral IC50 and cytotoxicity CC50 values were determined using a 4 parameter logistic fit based on the Levenberg-Marquardt algorithm. Model: 205-4 Parameter Logistic.
Calu-1 cells were purchased from ATCC (Cat #HTB-54) and are expanded in growth media (DMEM containing 10% FBS, 100 U/ml Penicillin-Streptomycin). To make ARF, remove and discard cell culture media, briefly rinse the cell layer with PBS to remove all traces of serum. Add 2.5 ml of TrypLE Express solution and incubate until cells dislodge, then add growth media and resuspend the cells by gentle pipetting. Count cells for concentration and determine viability using a ViCell. Centrifuge at RT, 300 g for 5 min to pellet cells. Gently aspirate supernatant, flick pellet to loosen cells. Resuspend cells in an appropriate volume of freezing medium (DMEM containing 10% DMSO, 10% FBS, 100 U/ml Penicillin-Streptomycin) to achieve 5×10^6/ml. Transfer 1 ml of cell suspension to freezing vials. Put vials to CoolCell cryopreservation container and place CoolCell container upright in a −80° C. freezer overnight before transferring vials to liquid nitrogen vapor for storage.

Another assay deals with hMPV-GFP. Nature of the assay: hMPV-GFP viral replication assay. The assay is classed as cell-based, human metapneumovirus. The note with it: read-out: hMPV EC50. On the procedure:
GFP expressing rgHMPV #3 p3 was generated in Dr. Buchholz's lab (Biacchesi S. et al., J Virol. 2007 June; 81(11): 6057-6067.) and propagated in VERO cells (kidney tissue derived from a normal, adult African green monkey. ATCC Cat #CCL-81) with infection Multiplicity of Infection (MOI) of 0.1. Virus was harvested 4 days after infection by collecting all culture material and freeze-thaw the viral culture in liquid nitrogen twice. To generating virus working stocks, thaw frozen samples in 37° C. water bath then centrifuge at 218 g for 15 min at 4° C. Add 1/10 of 10×SPG (Biological Industries 06-3061-01-5A), mix, aliquot supernatant, and quick-freeze in liquid nitrogen then transfer to −80° C. freezer for storage. Virus titer was determined by performing titration test in 96-well plates and calculate approximate virus titer using GFP event/well data.
Compound plates were prepared by dispensing compounds dissolved in DMSO into wells of 384 well coming 3985 polystyrene flat clear bottom optical imaging microplates (202.5 nL/well) using an ECHO acoustic dispenser. Each compound was tested in a 10-point serial 3-fold dilution (typical final concentrations: 40,300 nM-2 nM). […] Continuous culture of VERO cells were maintained in complete culture media (OptiMEM supplemented with 2 mM GlutaMAX™ and 100 U/ml Penicillin-Streptomycin). To set up the assay, trypsinize VERO cells with 0.25% Trypsin-EDTA until cells dislodge, then re-suspend cells with 1 mL FBS. Spin down cells at 300 g for 5 min and wash cells twice in culture media, then count cells using default parameters on ViCell. Cells were then diluted to 100,000 cells/ml (5,000 cells/50 μl) in complete culture media+TrypLE Select (80 μl/ml). Add hMPV-GFP virus to cells at 125,000 pfu/ml (MOI=1.25). Mix by gentle inversion. 10 μl/well of 100% DMSO was dispensed to CellTiter-Glo (CTG) assay Max_E controls wells. Dispense cells at 50 μl/well using Bravo and 50 μl filtered tips into compound plates. Cover plates with MicroClime lids loaded with 7.5 ml of assay media to minimize evaporation. Lightly shake plate for 10 minutes at room temperature then incubate at 37 degrees C. and 5% CO2 for 48 hrs. Following incubation, distinct, GFP-expressing cells are counted using an Acumen imaging system with appropriate settings. A same-well CTG assay is performed by adding 10 μl/well reconstituted CellTiter-Glo reagent (Promega G7573) and reading plates on PerkinElmer Envision according to manufacturer's instructions. Raw data were loaded and analyzed in ActivityBase. Antiviral IC50 and cytotoxicity CC50 values were determined using a 4 parameter logistic fit based on the Levenberg-Marquardt algorithm. Model: 205-4 Parameter Logistic.

Where [1] appears, read: read-out: RSV EC50, Calu-1 cells, RSV-A2-GFP MOI=1.2, 96 hrs, GFP-expressing cells counted.
The mark [2] stands for this setting: human metapneumovirus, Vero, 48 h.
Where [3] appears, read: human respiratory syncytial virus, Calu-1, 96 h, read-out: RSV EC50, Calu-1 cells, RSV-A2-GFP MOI=1.2, 96 hrs, GFP-expressing cells counted.

Structures are written as SMILES. Where two headings read alike, the source gives them in different places. A value given as a limit tells only on which side of the number the result lay.

As usually defined, the EC50 is the concentration that produces a half-maximal response.

With `CCOc1cc(C(=O)NCC(C)(O)c2cc(C(C)(C)N)cc(-c3ccc(F)cc3)n2)n(C)n1` (single isomer, unassigned) [Example 01-A], the EC50 in the assay on RSV-A2-GFP (setting [1]) and in the assay with hMPV-GFP (setting [2]) was more than 100 nM each time.

As to `CCOc1cc(C(=O)NCC(C)(O)c2cc(C(C)(C)N)cc(-c3ccc(F)cc3)n2)n(C)n1` (single isomer, unassigned) [Example 01-B], the EC50 in the assay with RSV-A2-GFP (setting [1]) is less than 10 nM; in the assay on hMPV-GFP (VERO cells, hMPV-GFP MOI=1.25, 48 hrs, GFP-expressing cells counted) it was more than 100 nM.

Turning to `Cn1nc(-n2cccn2)cc1C(=O)NCC(C)(O)c1cc(C(C)(C)N)cc(-c2ccc(F)cc2)n1` (single isomer, unassigned) [Example 02-B], the concentration for a half-maximal effect (EC50) with RSV-A2-GFP (setting [3]) was less than 10 nM; in the assay on hMPV-GFP (setting [2]) it was more than 100 nM.

As to `Cn1nc(-c2ccon2)cc1C(=O)NCC(C)(O)c1cc(C(C)(C)N)cc(-c2ccc(F)cc2)n1` (single isomer, unassigned) [Example 03-B], the EC50 was less than 10 nM in the assay with RSV-A2-GFP (setting [3]) and more than 100 nM with hMPV-GFP (setting [2]).

Regarding `Cn1nc(-c2ncco2)cc1C(=O)NCC(C)(O)c1cc(C(C)(C)N)cc(-c2ccc(F)cc2)n1` (single isomer, unassigned) [Example 04-B], the EC50 with RSV-A2-GFP (setting [3]) was less than 10 nM; with hMPV-GFP (setting [2]) it was more than 100 nM.

For `Cn1nc(-c2cscn2)cc1C(=O)NCC(C)(O)c1cc(C(C)(C)N)cc(-c2ccc(F)cc2)n1` (single isomer, unassigned) [Example 05-B], the concentration giving a half-maximal response (EC50) is less than 10 nM in the assay on RSV-A2-GFP (setting [3]) and more than 100 nM in the assay with hMPV-GFP (setting [2]).

In the case of `CCn1nc(-c2cscn2)cc1C(=O)NCC(C)(O)c1cc(C(C)(C)N)cc(-c2ccc(F)cc2)n1` (single isomer, unassigned) [Example 06-B], the EC50 in the assay with RSV-A2-GFP (setting [3]) is less than 10 nM; in the assay on hMPV-GFP (setting [2]) it was more than 100 nM.

Regarding `Cc1nc(-c2cscn2)sc1C(=O)NCC(C)(O)c1cc(C(C)(C)N)cc(-c2ccc(F)cc2)n1` (single isomer, unassigned) [Example 07-B], the figures for the EC50 in the assay on RSV-A2-GFP (setting [3]) and with hMPV-GFP (setting [2]) were less than 10 nM and more than 100 nM, respectively.

For the compound `CC(C)(N)c1cc(-c2ccc(F)cc2)nc(C(C)(O)CNC(=O)c2sc(-c3cscn3)nc2C2CC2)c1` (single isomer, unassigned) [Example 08-B], the EC50 in the assay on RSV-A2-GFP (setting [3]) is less than 10 nM; in the assay on hMPV-GFP (setting [2]), more than 100 nM.

In the case of `Cn1nc(-n2cccn2)cc1C(=O)NCC(C)(O)c1cc(C(C)(C)N)cc(-c2ccc(F)c(F)c2)n1` (single isomer, unassigned) [Example 38-B, N-(2-(4-(2-aminopropan-2-yl)-6-(3,4-difluorophenyl)pyridin-2-yl)-2-hydroxypropyl)-1′-methyl-1′H-[1,3′-bipyrazole]-5′-carboxamide], the EC50 in the assay on RSV-A2-GFP (setting [3]) was less than 10 nM.

Turning to `Cn1nc(-n2cccn2)cc1C(=O)NCC(C)(O)c1cc(C(C)(C)N)cc(-c2ccc(Cl)c(F)c2)n1` (single isomer, unassigned) [Example 39-B, N-(2-(4-(2-aminopropan-2-yl)-6-(4-chloro-3-fluorophenyl)pyridin-2-yl)-2-hydroxypropyl)-1′-methyl-1′H-[1,3′-bipyrazole]-5′-carboxamide], the EC50 in the assay with RSV-A2-GFP (setting [3]) was less than 10 nM.

As to `Cn1nc(-n2cccn2)cc1C(=O)NCC(C)(O)c1cc(C(C)(C)N)cc(Cc2ccc(F)cc2)n1` (single isomer, unassigned) [Example 40-B, N-(2-(4-(2-aminopropan-2-yl)-6-(4-fluorobenzyl)pyridin-2-yl)-2-hydroxypropyl)-1′-methyl-1′H-[1,3′-bipyrazole]-5′-carboxamide], in the assay on RSV-A2-GFP (setting [3]), the EC50 is less than 10 nM.

For `Cn1nc(-n2cccn2)cc1C(=O)NCC(O)(c1cc(C(C)(C)N)cc(-c2ccc(C(F)F)cc2)n1)C(F)(F)F` (single isomer, unassigned) [Example 41-A, N-(2-(4-(2-aminopropan-2-yl)-6-(4-(difluoromethyl)phenyl)pyridin-2-yl)-3,3,3-trifluoro-2-hydroxypropyl)-1′-methyl-1′H-[1,3′-bipyrazole]-5′-carboxamide], the EC50 in the assay on RSV-A2-GFP (setting [3]) was less than 10 nM.

As to `Cn1nc(-n2cccn2)cc1C(=O)NCC(O)(c1cc(C(C)(C)N)cc(-c2ccc(C(F)(F)F)cc2)n1)C(F)(F)F` (single isomer, unassigned) [Example 42-A, N-(2-(4-(2-aminopropan-2-yl)-6-(4-(trifluoromethyl)phenyl)pyridin-2-yl)-3,3,3-trifluoro-2-hydroxypropyl)-1′-methyl-1′H-[1,3′-bipyrazole]-5′-carboxamide], the EC50 in the assay on RSV-A2-GFP (setting [3]) is less than 10 nM.

On to `Cn1nc(-n2cccn2)cc1C(=O)NCC(O)(c1cc(C(C)(C)N)cc(-c2ccc(F)c(F)c2)n1)C(F)(F)F` (single isomer, unassigned) [Example 43-A, N-(2-(4-(2-aminopropan-2-yl)-6-(3,4-difluorophenyl)pyridin-2-yl)-3,3,3-trifluoro-2-hydroxypropyl)-1′-methyl-1′H-[1,3′-bipyrazole]-5′-carboxamide], for which the half-maximal effective concentration (EC50) in the assay on RSV-A2-GFP (setting [3]) was less than 10 nM.

For `Cn1nc(-n2cccn2)cc1C(=O)NCC(O)(c1cc(C(C)(C)N)cc(-c2ccc(F)cc2F)n1)C(F)(F)F` (single isomer, unassigned) [Example 44-A, N-(2-(4-(2-aminopropan-2-yl)-6-(2,4-difluorophenyl)pyridin-2-yl)-3,3,3-trifluoro-2-hydroxypropyl)-1′-methyl-1′H-[1,3′-bipyrazole]-5′-carboxamide], the EC50 in the assay on RSV-A2-GFP (setting [3]) was less than 10 nM.

With `Cc1cc(F)ccc1-c1cc(C(C)(C)N)cc(C(O)(CNC(=O)c2cc(-n3cccn3)nn2C)C(F)(F)F)n1` (single isomer, unassigned) [Example 45-A, N-(2-(4-(2-aminopropan-2-yl)-6-(4-fluoro-2-methylphenyl)pyridin-2-yl)-3,3,3-trifluoro-2-hydroxypropyl)-1′-methyl-1′H-[1,3′-bipyrazole]-5′-carboxamide], the concentration giving a half-maximal response (EC50) with RSV-A2-GFP (setting [3]) is less than 10 nM.
